Here are results for one molecule from patent US7491533B2, “Polynucleotides encoding an isolated β-islet cell two-pore domain potassium channel” (Metabolex, Inc., priority 2002, dated 2009).

The target in this assay is T1, BIK channels (Homo sapiens, UniProt Q96T55, A277E).
T1 construct: expressed in transfected cells
T1 sequence (Q96T55 1-294 isoform Q96T55-3 A277E): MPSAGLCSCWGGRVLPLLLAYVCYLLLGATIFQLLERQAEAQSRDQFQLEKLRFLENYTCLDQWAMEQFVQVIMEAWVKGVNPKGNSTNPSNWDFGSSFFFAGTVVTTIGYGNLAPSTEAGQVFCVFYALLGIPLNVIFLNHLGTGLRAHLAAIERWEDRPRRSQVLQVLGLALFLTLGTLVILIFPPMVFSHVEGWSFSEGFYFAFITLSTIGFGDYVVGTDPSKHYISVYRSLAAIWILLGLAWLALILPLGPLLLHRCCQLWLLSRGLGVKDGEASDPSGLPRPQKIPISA
In words: FlexStation / FLIPR Membrane Potential Dye assay in stable HEK293 transfectants. Type of assay: cell-based. The protocol: HEK293 cells stably transfected with pcDNA3.1 (circles) or the same vector allowing expression of BIK (squares) or TASK-2 (triangles) were plated in 96 well assay plates 24 h prior to analysis. Cells were incubated in 100 μl of 0.5×FLIPR Membrane Potential Dye (Molecular Devices) for 30 min. Methanadamide dilutions in DMSO were added to the wells by a FlexStation device (Molecular Devices), the fluorescence intensity changes were recorded before, during and after addition of the compound. The fluorescence intensity changes are plotted as the percent increase from the basal value recorded prior to compound addition. The values are the mean and range of duplicate wells. Similar results were obtained in three other independent experiments.
High level expression of a background/leak potassium channel such as BIK in fibroblasts results in hyperpolarization of the plasma membrane. Further, monitoring the membrane potential of these cells provides an assay for detecting small molecule blockers of BIK. We made stable HEK293 cell lines expressing BIK (and the well characterized background channel TASK2 for comparison) and characterized them using a FLIPR Membrane Potential Dye and FlexStation microplate fluorometer. […] Furthermore, BIK and TASK2 cells display a 3 to 5-fold greater change in fluorescence upon depolarization with 30 mM KCl compared to vector transfected stable cell lines. […]

`CCCCC/C=C\C/C=C\C/C=C\C/C=C\CCCC(=O)N[C@H](C)CO` [Methanandamide]: the “selectivity of BIK channel inactivation (result in words)” value (HEK293 stably transfected with pcDNA3.1, BIK or TASK-2, fluorescence change as percent increase from basal) was “partially selective inactivator of BIK”. Moreover, the “fold greater increase in fluorescence (depolarization) in BIK cells than in TASK2 or vector control cells” value (compound at 100 μM, HEK293 cells stably expressing BIK vs TASK2 or vector (pcDNA3.1)) stood at 3 fold.
